Measured values: ChEMBL document CHEMBL4699531, “Defining the Familial Fold of the Vicilin-Buried Peptide Family” (J Nat Prod, 2020)
Calls of active or inactive are those of the source. No cut-off for these calls is given here. Bridge positions count the residues as written; N and C are the ends. Square brackets hold non-standard residues; d marks the D form. Peptide text beside a SMILES is read from it. pGlu = O=C1CC[C@@H](C(=O)O)N1

Assays:
[1] = Inhibition of bovine pancreas trypsin using N-alpha-benzoyl-L-arginine-pnitroanilide substrate preincubated for 15 mins followed by substrate addition and measured after 30 mins; type: tissue-based, Bos taurus
[2] = species on record: Bos taurus; test: Inhibition of bovine pancreas trypsin at 0.01 to 8 uM using N-alpha-benzoyl-L-arginine-pnitroanilide substrate preincubated for 15 mins followed by substrate addition and measured after 30 mins; type: tissue-based; details: dose microM 0.01-8, time 45.0 min

Structure (SMILES)	IC50 [1]	inhibition [2]
CSCC[C@@H]1NC(=O)[C@H](C(C)C)NC(=O)[C@H](CCCCN)NC(=O)[C@@H](NC(=O)[C@H](CCC(N)=O)NC(=O)[C@H](CCC(=O)O)NC(=O)[C@@H]2CCCN2C(=O)[C@H](CC(=O)O)NC(=O)[C@@H](NC(=O)[C@@H](N)CC(N)=O)[C@@H](C)O)CSSC[C@@H](C(=O)N[C@@H](CCC(=O)O)C(=O)N[C@@H](CCCCN)C(=O)N[C@@H](CCC(=O)O)C(=O)N[C@@H](Cc2c[nH]cn2)C(=O)N[C@@H](CC(=O)O)C(=O)O)NC(=O)[C@H](CCC(N)=O)NC(=O)[C@H](CC(=O)O)NC(=O)[C@H](CC(C)C)NC(=O)[C@@H]2CSSC[C@H](NC1=O)C(=O)N[C@@H](Cc1ccc(O)cc1)C(=O)N[C@@H](C)C(=O)N[C@@H](CCC(N)=O)C(=O)N[C@@H](CCCNC(=N)N)C(=O)N[C@@H](Cc1c[nH]cn1)C(=O)N[C@@H](CO)C(=O)N[C@@H](CO)C(=O)N1CCC[C@H]1C(=O)N[C@@H](CCC(=O)O)C(=O)N[C@@H](CC(C)C)C(=O)N[C@@H](CC(C)C)C(=O)N[C@@H](CCCNC(=N)N)C(=O)N[C@@H](CCCNC(=N)N)C(=O)N2 (H-NTDPEQCKVMCYAQRHSSPELLRRCLDQCEKEHD-OH; disulfide 7-29, 11-25)	400 nM	–
CC[C@H](C)[C@H](NC(=O)[C@H](CCC(N)=O)NC(=O)[C@H](CCCNC(=N)N)NC(=O)[C@H](CCCCN)NC(=O)[C@@H]1CCCN1)C(=O)N[C@@H](CCC(=O)O)C(=O)N[C@@H](CCCNC(=N)N)C(=O)N[C@H]1CSSC[C@@H](C(=O)N[C@@H](CCC(=O)O)C(=O)N[C@@H](CCC(=O)O)C(=O)N[C@@H](CCC(N)=O)C(=O)N[C@@H](CCC(=O)O)C(=O)N[C@@H](CCC(=O)O)C(=O)N[C@@H](CCCCN)C(=O)N[C@@H](CCCNC(=N)N)C(=O)NCC(=O)N[C@@H](CCC(N)=O)C(=O)NCC(=O)N[C@@H](CC(=O)O)C(=O)O)NC(=O)[C@H](CCC(N)=O)NC(=O)[C@H](CCCNC(=N)N)NC(=O)[C@H](C(C)C)NC(=O)[C@@H]2CSSC[C@H](NC(=O)[C@H](CCC(=O)O)NC(=O)[C@H](CCC(N)=O)NC(=O)[C@H](CCCCN)NC1=O)C(=O)N[C@@H](CCCNC(=N)N)C(=O)N[C@@H](CCC(=O)O)C(=O)N[C@@H](CO)C(=O)N[C@@H](CCCNC(=N)N)C(=O)N[C@@H](CCC(N)=O)C(=O)NCC(=O)N[C@@H](CCC(=O)O)C(=O)N[C@@H](CCC(N)=O)C(=O)N[C@@H](CCC(N)=O)C(=O)N[C@@H](CCC(=O)O)C(=O)N[C@@H](CCCNC(=N)N)C(=O)N[C@@H](CCC(N)=O)C(=O)N2 (H-PKRQIERCKQECRESRQGEQQERQCVRQCEEQEEKRGQGD-OH; disulfide 8-29, 12-25)	–	inactive
CC[C@H](C)[C@H](NC(=O)[C@H](CCC(=O)O)NC(=O)[C@@H](NC(=O)[C@H](CCC(=O)O)NC(=O)[C@H](CCCCN)NC(=O)[C@@H]1CCC(=O)N1)[C@@H](C)O)C(=O)N[C@H]1CSSC[C@@H](C(=O)N[C@@H](CCC(=O)O)C(=O)N[C@@H](CCC(=O)O)C(=O)N[C@@H](CCCNC(=N)N)C(=O)N[C@@H](CC(C)C)C(=O)N[C@@H](CCCNC(=N)N)C(=O)N[C@@H](CC(=O)O)C(=O)O)NC(=O)[C@H](CCC(=O)O)NC(=O)[C@H](CCC(N)=O)NC(=O)[C@H](CCC(N)=O)NC(=O)[C@@H]2CSSC[C@H](NC(=O)[C@H](Cc3c[nH]c4ccccc34)NC(=O)[C@H](CCC(N)=O)NC(=O)[C@H](CCCNC(=N)N)NC1=O)C(=O)N[C@@H](CCC(N)=O)C(=O)N[C@@H](C(C)C)C(=O)N[C@@H](CCSC)C(=O)N[C@@H](CCCCN)C(=O)N1CCC[C@H]1C(=O)N[C@@H](CCC(N)=O)C(=O)NCC(=O)NCC(=O)N[C@@H](CCC(=O)O)C(=O)N[C@@H](CCC(=O)O)C(=O)N[C@@H](CCC(N)=O)C(=O)N[C@@H](CCCNC(=N)N)C(=O)N[C@@H](CCCNC(=N)N)C(=O)N2 ([pGlu]KETEICRQWCQVMKPQGGEEQRRCQQECEERLRD-OH; disulfide 7-29, 11-25)	–	inactive
